Three molecules from US8541584B2, “3-(1,2,3-triazol-4-yl) pyrrolo [2,3-b] pyridine derivatives” (Merck Patent GmbH, priority 2009, dated 2013) can be followed below.

A word on the IC50: it is the concentration that gives 50% inhibition.

The structures appear in SMILES notation.

One experiment has as its target T1, PDK1 (Homo sapiens, UniProt O15530).
T1 construct: His6 (N)
T1 sequence (O15530 51-556 limits assumed): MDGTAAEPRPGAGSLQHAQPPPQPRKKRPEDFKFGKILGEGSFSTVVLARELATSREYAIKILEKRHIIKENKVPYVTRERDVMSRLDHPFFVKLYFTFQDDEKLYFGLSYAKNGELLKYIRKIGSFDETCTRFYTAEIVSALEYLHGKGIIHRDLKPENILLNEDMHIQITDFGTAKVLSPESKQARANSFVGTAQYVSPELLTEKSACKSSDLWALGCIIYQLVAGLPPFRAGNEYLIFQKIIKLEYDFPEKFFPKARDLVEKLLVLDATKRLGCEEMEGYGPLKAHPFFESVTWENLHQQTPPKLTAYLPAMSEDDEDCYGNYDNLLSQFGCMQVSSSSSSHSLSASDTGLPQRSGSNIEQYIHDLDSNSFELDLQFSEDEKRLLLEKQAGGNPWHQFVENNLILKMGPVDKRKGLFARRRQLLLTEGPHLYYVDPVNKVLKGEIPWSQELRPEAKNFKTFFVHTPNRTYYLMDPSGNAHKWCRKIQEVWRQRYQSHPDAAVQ
The experiment in a line: Test for the inhibition of PDK1 (384-well flashplate, 33P-ATP). It counts as biochemical. As to conditions: His6-PDK1 3.4 nM, 4 μM ATP, 30° C., 60 min. As for the experimental part:
4.0 Test for the Inhibition of PDK1
The experimental batches are carried out in a flashplate system with 384 wells/microtitration plate.
In each case, the PDK1 sample His6-PDK1(1-50)(3.4 nM), the PDK1 substrate biotin-bA-bA-[…] (400 nM), 4 μM ATP (with 0.2 μCi of ^33P-ATP/well) and the test substance in 50 μl of conventional experimental solution per well are incubated at 30° C. for 60 min. The test substances are employed in corresponding concentrations (if desired in a dilution series). The control is carried out without test substance. The reaction is stopped using standard methods and washed. The activity of the kinase is measured via the incorporated radioactivity in top count. In order to determine the non-specific kinase reaction (blank value), the experimental batches are carried out in the presence of 100 nM staurosporin.
The radioactivity (decompositions per minute) of the blank value (no use of test substance in the presence of staurosporin) is subtracted from all other radioactivity values. The controls (kinase activity without test substance) are set equal to 100 percent and all other radioactivity values (after subtracting the blank value) are expressed set in relation thereto (for example in % of the control).
IC50 values (50% inhibition) are determined with the aid of statistics programmes, such as, for example, RS1.

Another experiment addresses T2, IKKε (Homo sapiens, UniProt Q14164).
T2 sequence (Q14164 1-716): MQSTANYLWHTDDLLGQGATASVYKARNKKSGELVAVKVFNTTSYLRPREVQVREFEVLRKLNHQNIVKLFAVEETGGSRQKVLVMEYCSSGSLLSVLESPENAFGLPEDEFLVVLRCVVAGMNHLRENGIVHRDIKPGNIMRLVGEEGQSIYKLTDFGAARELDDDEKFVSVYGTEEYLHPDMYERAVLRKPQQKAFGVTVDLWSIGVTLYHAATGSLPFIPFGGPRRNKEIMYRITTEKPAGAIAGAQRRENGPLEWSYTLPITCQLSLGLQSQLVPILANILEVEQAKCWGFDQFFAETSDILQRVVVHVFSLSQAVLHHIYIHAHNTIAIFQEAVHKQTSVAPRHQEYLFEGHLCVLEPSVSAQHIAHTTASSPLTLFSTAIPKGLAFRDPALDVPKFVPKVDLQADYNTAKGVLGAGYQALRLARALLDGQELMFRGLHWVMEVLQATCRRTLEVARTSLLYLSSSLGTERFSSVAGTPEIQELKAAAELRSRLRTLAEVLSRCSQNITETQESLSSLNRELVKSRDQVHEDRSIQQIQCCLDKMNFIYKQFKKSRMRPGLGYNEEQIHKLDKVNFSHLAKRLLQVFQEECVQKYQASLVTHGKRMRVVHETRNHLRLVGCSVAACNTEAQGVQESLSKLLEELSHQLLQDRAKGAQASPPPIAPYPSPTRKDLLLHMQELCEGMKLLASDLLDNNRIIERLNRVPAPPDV
Put plainly: IKKε kinase test (384-well flashplate). It counts as biochemical. As to conditions: 1 nM IKKε, 10 μM ATP, 30° C., 120 min; read-out: IC50 [IKKepsilon]. The protocol:
IKKε—Kinase Test (IKKepsilon)
The kinase assay is performed as 384-well flashplate assay.
1 nM IKKε, 800 nM biotinylated IκBα(19-42) peptide (biotin-C6-C6-[…]) and 10 μM ATP (with 0.3 μCi of ^33P-ATP/well) are incubated in a total volume of 50 μl (10 mM MOPS, 10 mM magnesium acetate, 0.1 mM EGTA, 1 mM dithiothreitol, 0.02% of Brij35, 0.1% of BSA, 0.1% of BioStab, pH 7.5) with or without test substance at 30° C. for 120 min. The reaction is stopped using 25 μl of 200 mM EDTA solution, filtered off with suction after 30 min at room temperature, and the wells are washed 3 times with 100 μl of 0.9% NaCl solution. The non-specific proportion of the kinase reaction (blank) is determined using 3 μM EMD 1126352 (BX-795). Radioactivity is measured in the Topcount. IC50 values are calculated using RS1.

Experiment [1] deals with T3, TANK binding kinase (TBK1) (Homo sapiens, UniProt Q9UHD2).
T3 sequence (Q9UHD2 1-729): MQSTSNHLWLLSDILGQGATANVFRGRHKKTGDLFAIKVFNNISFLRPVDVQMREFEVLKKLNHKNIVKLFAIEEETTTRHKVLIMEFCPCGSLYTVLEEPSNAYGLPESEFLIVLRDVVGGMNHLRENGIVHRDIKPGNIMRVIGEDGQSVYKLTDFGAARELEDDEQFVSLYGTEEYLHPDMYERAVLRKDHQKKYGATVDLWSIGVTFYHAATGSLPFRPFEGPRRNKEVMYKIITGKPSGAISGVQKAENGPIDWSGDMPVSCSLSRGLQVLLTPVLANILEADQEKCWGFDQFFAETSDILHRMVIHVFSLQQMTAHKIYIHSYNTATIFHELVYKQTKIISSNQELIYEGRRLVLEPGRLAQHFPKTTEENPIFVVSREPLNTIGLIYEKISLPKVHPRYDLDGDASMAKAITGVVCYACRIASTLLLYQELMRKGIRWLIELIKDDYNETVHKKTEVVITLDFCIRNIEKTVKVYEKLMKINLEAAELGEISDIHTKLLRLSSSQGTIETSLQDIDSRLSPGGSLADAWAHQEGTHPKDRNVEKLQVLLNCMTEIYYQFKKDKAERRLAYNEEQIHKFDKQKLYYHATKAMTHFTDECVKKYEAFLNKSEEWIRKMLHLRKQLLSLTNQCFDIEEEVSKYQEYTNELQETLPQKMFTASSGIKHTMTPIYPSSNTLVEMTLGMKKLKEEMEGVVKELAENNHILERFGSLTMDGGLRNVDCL
The experiment in a line: TBK1 kinase test (384-well flashplate). It counts as biochemical. To be noted: 0.6 nM TBK1, 10 μM ATP, 30° C., 120 min. As for the experimental part: The kinase assay is performed as 384-well flashplate assay. 0.6 nM TANK binding kinase (TBK1), 800 nM biotinylated MELK-derived peptide (biotin-Ah-Ah-[…]) and 10 μM ATP (with 0.25 μCi of ^33P-ATP/well) are incubated in a total volume of 50 μl (10 mM MOPS, 10 mM magnesium acetate, 0.1 mM EGTA, 1 mM DTT, 0.02% of Brij35, 0.1% of BSA, pH 7.5) with or without test substance at 30° C. for 120 min. The reaction is stopped using 25 μl of 200 mM EDTA solution, filtered off with suction after 30 min at room temperature, and the wells are washed 3 times with 100 μl of 0.9% NaCl solution. The non-specific proportion of the kinase reaction (blank) is determined using 100 nM staurosporine. Radioactivity is measured in the Topcount. IC50 values are calculated using RS1.

Experiment [2] relates to PDK1 kinase activity (P-T308-PKB) in PC3 cells. The experiment in a line: Cellular testing of PDK1 kinase inhibitors (Luminex assay, P-T308-PKB in PC3 cells). The class given is cell-based. To be noted: Homo sapiens, PC-3, 0.5 h, serum-free, 30 min with test substance. The protocol:
Description of the Method for Cellular Testing of PDK1 Kinase Inhibitors
The cellular assay for determination of the PDK1 kinase activity is performed as Luminex assay in the 96-well format. PC3 cells are sown at 20,000 cells per well in 100 μl of medium (45% of […]/45% of Ham's F12/10% of FCS) and incubated under serum-free conditions on the following day for 30 min with serial dilution of the test substance (7 concentrations). The cells are subsequently lysed using 90 μl of lysis buffer (20 mM Tris/HCl pH 8.0, 150 mM NaCl, 1% of NP40, 10% of glycerol, 1% of phosphatase inhibitor I, 1% of phosphatase inhibitor II, 0.1% of protease inhibitor Cocktail III, 0.01% of benzonase) per well, and the lysates are separated off from insoluble cell constituents by means of centrifugation through a 96-well filter plate (0.65 μm). The lysates are incubated overnight at 4° C. with shaking with Luminex beads to which an anti-total PKB antibody has been coupled. Detection is carried out on the following day by addition of a P-T308-PKB antibody and a species-specific PE-labelled secondary antibody. The determination of P-T308-PKB is carried out by measurement in the Luminex100 instrument by determination of 100 events per cavity in a measurement time of 60 sec. As pharmacological blank, the signals obtained from cells which have been treated with 10 μM staurosporin are subtracted from all other batches. The control value used for maximum phosphorylation of PKB on T308 are the signals from cells which have been treated only with the solvent (0.3% of DMSO). The values of the batches treated with test substance are calculated from this as percent of control, and IC50 values are determined by means of RS1.

Turning to `Cn1cc(-c2cnc3[nH]cc(-c4cn(CCc5ccccc5)nn4)c3c2)cn1` [Compound A16, 5-(1-Methyl-1H-pyrazol-4-yl)-3-(1-phenethyl-1H-1,2,3-triazol-4-yl)-1H-pyrrolo[2,3-b]-pyridine], the 50% inhibitory concentration (IC50) (against PDK1; on IKKε; in experiment [1]) was 0.5 to 1000 nM throughout.
Turning to `Cn1cc(-c2cnc3[nH]cc(-c4cn(CCN5CCOCC5)nn4)c3c2)cn1` [Compound A18, 5-(1-Methyl-1H-pyrazol-4-yl)-3-[1-(2-morpholin-4-ylethyl)-1H-1,2,3-triazol-4-yl]-1H-pyrrolo[2,3-b]pyridine], the half-inhibitory concentration (IC50) (on PDK1; at IKKε; in experiment [1]) was 0.5 to 1000 nM throughout.
Take `Cn1cc(-c2cnc3[nH]cc(-c4cn(CC(O)c5ccccc5)nn4)c3c2)cn1` (centres unmarked) [Compound A31, 2-{4-[5-(1-Methyl-1H-pyrazol-4-yl)-1H-pyrrolo[2,3-b]pyridin-3-yl]-1,2,3-triazol-1-yl}-1-phenylethanol]: the figures for the concentration for half-maximal inhibition (IC50) (at PDK1; in experiment [2]) were 0.5 to 1000 nM and 1000 to 10000 nM, respectively.
